In patent publication US9611267B2, “Substituted tricyclic compounds as FGFR inhibitors” (Incyte Corporation, priority 2012, dated 2017):

Legend:
Type in all cases: biochemical
[1] = target: FGFR1 (Homo sapiens (Human), UniProt P11362); assay: FGFR enzymatic assay (FRET peptide phosphorylation), FGFR1; conditions: FGFR1 enzyme 0.02 nM, ATP 210 μM
Summary of the method: (§1)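 IC50 values were obtained from variable-slope sigmoidal dose-response fitting of a FRET read-out of peptide phosphorylation. The buffer, described for FGFR3, was 50 mM HEPES pH 7.5 with MgCl2, EGTA, Tween-20 and DTT.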

[2] = target: FGFR3 (Homo sapiens (Human), UniProt P22607); assay: FGFR enzymatic assay (FRET peptide phosphorylation), FGFR3; conditions: FGFR3 enzyme (Millipore), ATP 140 μM
Summary of the method: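 After 5-10 min pre-incubation of FGFR3 with serially diluted compound in pH 7.5 HEPES/MgCl2/EGTA/DTT buffer, the reaction proceeded 1 hr at 25° C. Phosphorylated peptide was detected by FRET, and IC50 was fitted with a variable-slope sigmoid.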

[3] = target: FGFR2 (Homo sapiens (Human), UniProt P21802); assay: FGFR enzymatic assay (FRET peptide phosphorylation), FGFR2; conditions: FGFR2 enzyme 0.01 nM, ATP 100 μM
Summary of the method: as §1

Measured: IC50

FGFR1, sequence (P11362 22-822): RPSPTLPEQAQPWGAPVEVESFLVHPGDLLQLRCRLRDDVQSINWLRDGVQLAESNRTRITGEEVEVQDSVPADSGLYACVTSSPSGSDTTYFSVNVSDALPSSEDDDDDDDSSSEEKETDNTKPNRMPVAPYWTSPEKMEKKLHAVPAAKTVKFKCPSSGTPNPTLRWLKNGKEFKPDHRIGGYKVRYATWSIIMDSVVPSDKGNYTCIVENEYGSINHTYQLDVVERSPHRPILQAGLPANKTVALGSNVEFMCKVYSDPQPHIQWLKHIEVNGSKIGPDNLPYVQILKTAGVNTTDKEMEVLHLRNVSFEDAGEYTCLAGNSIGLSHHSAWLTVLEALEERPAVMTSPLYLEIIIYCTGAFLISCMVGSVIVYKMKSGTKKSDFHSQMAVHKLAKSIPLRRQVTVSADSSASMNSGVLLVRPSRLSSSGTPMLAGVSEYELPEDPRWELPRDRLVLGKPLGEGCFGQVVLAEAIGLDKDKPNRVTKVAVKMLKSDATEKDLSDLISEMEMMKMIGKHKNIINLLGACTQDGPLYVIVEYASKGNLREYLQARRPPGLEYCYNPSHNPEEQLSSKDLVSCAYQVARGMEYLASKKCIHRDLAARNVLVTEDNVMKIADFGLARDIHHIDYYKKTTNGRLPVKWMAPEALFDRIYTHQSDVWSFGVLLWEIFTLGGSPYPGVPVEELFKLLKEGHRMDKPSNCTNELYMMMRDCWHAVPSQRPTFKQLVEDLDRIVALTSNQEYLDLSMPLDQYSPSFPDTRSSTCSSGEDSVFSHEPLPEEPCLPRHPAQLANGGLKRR
FGFR2, sequence (P21802 22-821): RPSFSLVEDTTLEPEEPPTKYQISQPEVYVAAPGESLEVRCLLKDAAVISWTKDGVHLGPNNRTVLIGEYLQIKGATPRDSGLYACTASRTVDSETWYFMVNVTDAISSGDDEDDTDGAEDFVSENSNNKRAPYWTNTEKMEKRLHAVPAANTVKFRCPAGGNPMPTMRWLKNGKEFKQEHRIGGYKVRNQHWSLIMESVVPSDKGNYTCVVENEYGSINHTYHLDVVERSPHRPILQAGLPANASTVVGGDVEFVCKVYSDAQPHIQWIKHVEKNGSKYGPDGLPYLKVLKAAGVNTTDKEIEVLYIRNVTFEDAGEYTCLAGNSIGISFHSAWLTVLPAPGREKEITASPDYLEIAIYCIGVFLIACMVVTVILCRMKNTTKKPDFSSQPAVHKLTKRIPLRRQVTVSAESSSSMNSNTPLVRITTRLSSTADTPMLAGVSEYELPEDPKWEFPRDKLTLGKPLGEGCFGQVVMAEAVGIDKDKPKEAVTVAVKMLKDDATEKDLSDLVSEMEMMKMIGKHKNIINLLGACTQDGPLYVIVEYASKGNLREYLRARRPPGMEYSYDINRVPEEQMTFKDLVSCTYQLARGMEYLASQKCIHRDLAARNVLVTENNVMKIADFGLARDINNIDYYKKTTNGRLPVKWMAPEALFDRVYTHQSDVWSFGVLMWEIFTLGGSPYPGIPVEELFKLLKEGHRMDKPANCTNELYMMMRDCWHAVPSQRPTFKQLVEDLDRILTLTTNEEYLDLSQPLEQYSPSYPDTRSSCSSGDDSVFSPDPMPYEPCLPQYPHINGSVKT
FGFR3, sequence (P22607 23-806): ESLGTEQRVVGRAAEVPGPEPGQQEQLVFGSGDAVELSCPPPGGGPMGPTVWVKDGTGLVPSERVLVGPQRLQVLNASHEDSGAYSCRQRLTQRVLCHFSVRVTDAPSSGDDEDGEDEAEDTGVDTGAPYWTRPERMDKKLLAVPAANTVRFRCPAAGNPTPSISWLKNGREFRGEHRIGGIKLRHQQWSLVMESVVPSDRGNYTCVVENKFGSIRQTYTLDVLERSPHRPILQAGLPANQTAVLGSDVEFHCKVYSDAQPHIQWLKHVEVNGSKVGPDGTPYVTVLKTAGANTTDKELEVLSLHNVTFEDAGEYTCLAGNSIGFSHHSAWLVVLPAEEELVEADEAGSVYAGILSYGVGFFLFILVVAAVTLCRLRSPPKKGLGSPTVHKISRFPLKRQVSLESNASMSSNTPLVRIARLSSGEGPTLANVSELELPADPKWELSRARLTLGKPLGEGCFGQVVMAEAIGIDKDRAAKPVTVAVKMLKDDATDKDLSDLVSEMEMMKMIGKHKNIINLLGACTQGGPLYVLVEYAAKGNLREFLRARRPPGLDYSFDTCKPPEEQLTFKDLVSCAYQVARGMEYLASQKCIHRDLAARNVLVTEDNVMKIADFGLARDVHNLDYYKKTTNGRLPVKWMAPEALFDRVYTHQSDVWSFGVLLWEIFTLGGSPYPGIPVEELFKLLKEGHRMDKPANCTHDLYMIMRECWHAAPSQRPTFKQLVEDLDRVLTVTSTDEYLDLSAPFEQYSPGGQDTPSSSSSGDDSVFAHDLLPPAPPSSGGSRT

CCN1CCN(CCc2cc3c4c(cnc3[nH]2)CN(c2c(F)c(OC)cc(OC)c2F)C(=O)N4C)CC1 [Example 71, 3-(2,6-difluoro-3,5-dimethoxyphenyl)-8-[2-(4-ethylpiperazin-1-yl)ethyl]-1-methyl-1,3,4,7-tetrahydro-2H-pyrrolo[3′,2′:5,6]pyrido[4,3-d]pyrimidin-2-one]
< 100 nM: all assays above

CCN1CCN(CCCc2cc3c4c(cnc3[nH]2)CN(c2c(F)c(OC)cc(OC)c2F)C(=O)N4C)CC1 [Example 72, 3-(2,6-difluoro-3,5-dimethoxyphenyl)-8-[3-(4-ethylpiperazin-1-yl)propyl]-1-methyl-1,3,4,7-tetrahydro-2H-pyrrolo[3′,2′:5,6]pyrido[4,3-d]pyrimidin-2-one]
< 100 nM: all assays above

CCN1CCC(Cc2cc3c4c(cnc3[nH]2)CN(c2c(F)c(OC)cc(OC)c2F)C(=O)N4C)CC1 [Example 73, 3-(2,6-difluoro-3,5-dimethoxyphenyl)-8-[(1-ethylpiperidin-4-yl)methyl]-1-methyl-1,3,4,7-tetrahydro-2H-pyrrolo[3′,2′:5,6]pyrido[4,3-d]pyrimidin-2-one]
< 100 nM: all assays above

COc1cc(OC)c(F)c(N2Cc3cnc4[nH]ccc4c3N([C@@H]3CCC[C@H]3O)C2=O)c1F [Example 74, 3-(2,6-difluoro-3,5-dimethoxyphenyl)-1-[(1R,2R)-2-hydroxycyclopentyl]-1,3,4,7-tetrahydro-2H-pyrrolo[3′,2′:5,6]pyrido[4,3-d]pyrimidin-2-one]
< 100 nM: all assays above

COc1cc(OC)c(F)c(N2Cc3cnc4c(c3N([C@@H]3CCC[C@H]3O)C2=O)CC(=O)N4)c1F [Example 75, 3-(2,6-difluoro-3,5-dimethoxyphenyl)-1-[(1R,2R)-2-hydroxycyclopentyl]-3,4,7,9-tetrahydro-1H-pyrrolo[3′,2′:5,6]pyrido[4,3-d]pyrimidine-2,8-dione]
< 100 nM: all assays above

COc1cc(OC)c(F)c(N2Cc3cnc4[nH]ccc4c3N(c3cccc(F)c3F)C2=O)c1F [Example 76, 3-(2,6-difluoro-3,5-dimethoxyphenyl)-1-(2,3-difluorophenyl)-1,3,4,7-tetrahydro-2H-pyrrolo[3′,2′:5,6]pyrido[4,3-d]pyrimidin-2-one]
< 100 nM: all assays above

COc1cc(OC)c(F)c(N2Cc3cnc4[nH]ccc4c3N(Cc3ccccn3)C2=O)c1F [Example 78, 3-(2,6-difluoro-3,5-dimethoxyphenyl)-1-(pyridin-2-ylmethyl)-1,3,4,7-tetrahydro-2H-pyrrolo[3′,2′:5,6]pyrido[4,3-d]pyrimidin-2-one]
< 100 nM: all assays above

COc1cc(OC)c(F)c(N2Cc3cnc4c(c3N(Cc3ccccn3)C2=O)CC(=O)N4)c1F [Example 79, 3-(2,6-difluoro-3,5-dimethoxyphenyl)-1-(pyridin-2-ylmethyl)-3,4,7,9-tetrahydro-1H-pyrrolo[3′,2′:5,6]pyrido[4,3-d]pyrimidine-2,8-dione]
< 100 nM: all assays above

COc1cc(OC)c(F)c(N2Cc3cnc4c(c3N(c3ccc(Cl)cc3)C2=O)CC(=O)N4)c1F [Example 80, 1-(4-chlorophenyl)-3-(2,6-difluoro-3,5-dimethoxyphenyl)-3,4,7,9-tetrahydro-1H-pyrrolo[3′,2′:5,6]pyrido[4,3-d]pyrimidine-2,8-dione]
< 100 nM: all assays above

COc1cc(OC)c(F)c(N2Cc3cnc4c(c3N(c3ccc(Cl)cn3)C2=O)CC(=O)N4)c1F [Example 81, 1-(5-chloropyridin-2-yl)-3-(2,6-difluoro-3,5-dimethoxyphenyl)-3,4,7,9-tetrahydro-1H-pyrrolo[3′,2′:5,6]pyrido[4,3-d]pyrimidine-2,8-dione]
< 100 nM: all assays above

COc1cc(OC)c(F)c(N2Cc3cnc4[nH]ccc4c3N(c3cccc(C#N)c3)C2=O)c1F [Example 82, 3-[3-(2,6-difluoro-3,5-dimethoxyphenyl)-2-oxo-2,3,4,7-tetrahydro-1H-pyrrolo[3′,2′:5,6]pyrido[4,3-d]pyrimidin-1-yl]benzonitrile]
< 100 nM: all assays above

COc1cc(OC)c(F)c(N2Cc3cnc4[nH]ccc4c3N(c3cccnc3)C2=O)c1F [Example 83, 3-(2,6-difluoro-3,5-dimethoxyphenyl)-1-pyridin-3-yl-1,3,4,7-tetrahydro-2H-pyrrolo[3′,2′:5,6]pyrido[4,3-d]pyrimidin-2-one]
< 100 nM: all assays above

COc1cc(OC)c(F)c(N2Cc3cnc4[nH]ccc4c3N(c3cccc(Cl)c3F)C2=O)c1F [Example 84, 1-(3-chloro-2-fluorophenyl)-3-(2,6-difluoro-3,5-dimethoxyphenyl)-1,3,4,7-tetrahydro-2H-pyrrolo[3′,2′:5,6]pyrido[4,3-d]pyrimidin-2-one]
< 100 nM: all assays above

COc1cc(OC)c(F)c(N2Cc3cnc4[nH]ncc4c3N(c3cnn(C)c3)C2=O)c1F [Example 85, 3-(2,6-difluoro-3,5-dimethoxyphenyl)-1-(1-methyl-1H-pyrazol-4-yl)-1,3,4,7-tetrahydro-2H-pyrazolo[4′,3′:5,6]pyrido[4,3-d]pyrimidin-2-one]
< 100 nM: all assays above

COc1cc(OC)c(F)c(N2Cc3cnc4[nH]ncc4c3N(Cc3ccccn3)C2=O)c1F [Example 86, 3-(2,6-difluoro-3,5-dimethoxyphenyl)-1-(pyridin-2-ylmethyl)-1,3,4,7-tetrahydro-2H-pyrazolo[4′,3′:5,6]pyrido[4,3-d]pyrimidin-2-one]
< 100 nM: all assays above

COc1cc(OC)c(F)c(N2Cc3cnc4[nH]ncc4c3N(C3CC3)C2=O)c1F [Example 87, 1-cyclopropyl-3-(2,6-difluoro-3,5-dimethoxyphenyl)-1,3,4,7-tetrahydro-2H-pyrazolo[4′,3′:5,6]pyrido[4,3-d]pyrimidin-2-one]
< 100 nM: all assays above

COc1cc(OC)c(F)c(N2Cc3cnc4[nH]ncc4c3N([C@H]3CCCOC3)C2=O)c1F [Example 88, 3-(2,6-difluoro-3,5-dimethoxyphenyl)-1-[(3S)-tetrahydro-2H-pyran-3-yl]-1,3,4,7-tetrahydro-2H-pyrazolo[4′,3′:5,6]pyrido[4,3-d]pyrimidin-2-one]
< 100 nM: all assays above

COc1cc(OC)c(F)c(N2Cc3cnc4[nH]ncc4c3N([C@H]3CCOC3)C2=O)c1F [Example 89, 3-(2,6-difluoro-3,5-dimethoxyphenyl)-1-[(3S)-tetrahydrofuran-3-yl]-1,3,4,7-tetrahydro-2H-pyrazolo[4′,3′:5,6]pyrido[4,3-d]pyrimidin-2-one]
< 100 nM: all assays above

COc1cc(OC)c(F)c(N2Cc3cnc4[nH]ncc4c3N([C@@H]3CCOC3)C2=O)c1F [Example 90, 3-(2,6-difluoro-3,5-dimethoxyphenyl)-1-[(3R)-tetrahydrofuran-3-yl]-1,3,4,7-tetrahydro-2H-pyrazolo[4′,3′:5,6]pyrido[4,3-d]pyrimidin-2-one]
< 100 nM: all assays above

COc1cc(OC)c(F)c(N2Cc3cnc4[nH]ncc4c3N(C(C)C)C2=O)c1F [Example 91, 3-(2,6-difluoro-3,5-dimethoxyphenyl)-1-isopropyl-1,3,4,7-tetrahydro-2H-pyrazolo[4′,3′:5,6]pyrido[4,3-d]pyrimidin-2-one]
< 100 nM: all assays above

COc1cc(OC)c(F)c(N2Cc3cnc4[nH]ncc4c3N(c3ccccc3OC(F)(F)F)C2=O)c1F [Example 92, 3-(2,6-difluoro-3,5-dimethoxyphenyl)-1-[2-(trifluoromethoxy)phenyl]-1,3,4,7-tetrahydro-2H-pyrazolo[4′,3′:5,6]pyrido[4,3-d]pyrimidin-2-one]
< 100 nM: all assays above

COc1cc(OC)c(F)c(N2Cc3cnc4[nH]ncc4c3N(c3cccc(C#N)c3)C2=O)c1F [Example 93, 3-[3-(2,6-difluoro-3,5-dimethoxyphenyl)-2-oxo-2,3,4,7-tetrahydro-1H-pyrazolo[4′,3′:5,6]pyrido[4,3-d]pyrimidin-1-yl]benzonitrile]
< 100 nM: all assays above
